Laboratory results reported in ChEMBL document CHEMBL3714729, “Heterocyclic compounds for the inhibition of pask” (2012).

Legend:
[1] = molecular target: T1, PAS domain-containing serine/threonine-protein kinase (Homo sapiens, UniProt Q96RG2); assay: Inhibition of purified full-length human PASK expressed in insect cells using MBP protein substrate incubated for 10 mins before ATP addition and measured after 1 hr by kinase-Glo luminescent kinase assay
[2] = molecular target: T1, PAS domain-containing serine/threonine-protein kinase; assay: Inhibition of purified human PASK kinase domain expressed in insect cells using MBP protein substrate incubated for 10 mins before ATP addition and measured after 1 hr by kinase-Glo luminescent kinase assay
[3] = molecular target: T1, PAS domain-containing serine/threonine-protein kinase; assay: Inhibition of N-terminal GST-tagged human recombinant PASK kinase domain (879 to 1323 residues) expressed in insect cells using MBP protein substrate incubated for 120 mins in presence of [33P]ATP by scintillation counting based radiochemical assay
[4] = molecular target: Casein kinase II subunit alpha' (Homo sapiens, UniProt P19784); assay: Inhibition of GST-tagged full-length purified human CK2a2 using RRRDDDSDDD substrate incubated for 120 mins in presence of [33P]ATP by scintillation counting based biochemical assay
[5] = molecular target: T1, PAS domain-containing serine/threonine-protein kinase; assay: Inhibition of human recombinant PASK using Ulight-peptide substrate incubated for 2 hrs by TR-FRET assay

Sequence of Casein kinase II subunit alpha' (P19784 whole entry, the tested form may be a part): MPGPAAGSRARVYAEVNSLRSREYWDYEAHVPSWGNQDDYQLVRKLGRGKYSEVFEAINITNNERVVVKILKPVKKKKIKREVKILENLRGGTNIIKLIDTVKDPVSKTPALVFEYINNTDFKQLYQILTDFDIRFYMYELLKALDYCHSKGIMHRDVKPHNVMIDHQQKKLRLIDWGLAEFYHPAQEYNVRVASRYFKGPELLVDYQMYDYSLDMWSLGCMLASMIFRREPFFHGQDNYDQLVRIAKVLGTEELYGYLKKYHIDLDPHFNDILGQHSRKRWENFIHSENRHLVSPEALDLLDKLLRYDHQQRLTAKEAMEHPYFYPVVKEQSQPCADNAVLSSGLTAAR
T1 sequence (Q96RG2 whole entry, the tested form may be a part): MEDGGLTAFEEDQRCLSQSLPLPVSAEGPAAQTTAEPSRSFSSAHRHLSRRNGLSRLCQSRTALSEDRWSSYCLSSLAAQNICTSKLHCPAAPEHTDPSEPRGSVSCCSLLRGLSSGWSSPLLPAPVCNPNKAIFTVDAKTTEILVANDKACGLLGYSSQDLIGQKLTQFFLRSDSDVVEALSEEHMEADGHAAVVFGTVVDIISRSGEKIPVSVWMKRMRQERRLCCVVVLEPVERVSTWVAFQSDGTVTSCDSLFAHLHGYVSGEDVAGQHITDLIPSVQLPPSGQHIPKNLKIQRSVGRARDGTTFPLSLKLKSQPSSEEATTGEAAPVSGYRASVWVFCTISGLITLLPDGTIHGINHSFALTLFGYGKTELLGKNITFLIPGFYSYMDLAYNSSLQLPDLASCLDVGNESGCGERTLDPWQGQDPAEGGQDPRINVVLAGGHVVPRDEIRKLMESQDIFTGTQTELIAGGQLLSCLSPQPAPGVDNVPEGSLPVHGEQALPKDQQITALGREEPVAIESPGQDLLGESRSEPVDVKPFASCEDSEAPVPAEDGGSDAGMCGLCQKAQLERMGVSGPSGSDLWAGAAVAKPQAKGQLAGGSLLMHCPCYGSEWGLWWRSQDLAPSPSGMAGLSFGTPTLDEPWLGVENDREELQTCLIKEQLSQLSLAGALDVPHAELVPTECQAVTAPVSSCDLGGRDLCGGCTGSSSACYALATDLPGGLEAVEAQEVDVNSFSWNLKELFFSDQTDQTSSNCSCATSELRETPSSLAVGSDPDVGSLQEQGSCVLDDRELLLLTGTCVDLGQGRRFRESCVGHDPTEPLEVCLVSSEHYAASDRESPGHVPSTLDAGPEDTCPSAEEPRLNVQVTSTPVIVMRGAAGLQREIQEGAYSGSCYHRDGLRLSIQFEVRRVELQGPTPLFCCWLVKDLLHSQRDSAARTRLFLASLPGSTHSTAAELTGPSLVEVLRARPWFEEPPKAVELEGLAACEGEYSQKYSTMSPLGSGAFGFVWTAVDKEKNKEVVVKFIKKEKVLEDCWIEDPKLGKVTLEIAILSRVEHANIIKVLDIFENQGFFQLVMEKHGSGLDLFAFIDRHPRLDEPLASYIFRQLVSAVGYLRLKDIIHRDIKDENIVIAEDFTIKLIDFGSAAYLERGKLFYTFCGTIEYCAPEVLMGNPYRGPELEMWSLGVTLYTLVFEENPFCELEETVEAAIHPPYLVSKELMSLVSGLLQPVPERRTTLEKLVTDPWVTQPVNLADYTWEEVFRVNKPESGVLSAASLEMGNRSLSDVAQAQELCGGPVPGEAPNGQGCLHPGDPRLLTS

| IC50 [1] | IC50 [2] | IC50 [3] | IC50 [4] | IC50 [5] | SMILES |
| --- | --- | --- | --- | --- | --- |
| ≤ 10 µM | ≤ 10 µM | – | – | – | Cc1nn2c(=O)cc(-c3ccc(Cl)cc3)[nH]c2c1-c1ccccc1 |
| – | – | ≤ 10 µM | ≤ 10 µM | ≤ 10 µM | O=c1cc(-c2ccc3[nH]nnc3c2)[nH]c2c(-c3cccnc3)cnn12 |
| – | – | ≤ 10 µM | ≤ 10 µM | ≤ 10 µM | CCCNC(=O)c1cnn2c(=O)cc(-c3ccc4[nH]nnc4c3)[nH]c12 |
| ≥ 10 µM | ≥ 10 µM | – | – | – | CCc1c(C)[nH]c2c(-c3ccc(Cl)cc3)c(C)nn2c1=O |
| ≥ 10 µM | ≥ 10 µM | – | – | – | O=c1c2c([nH]c3c(-c4ccc(Cl)cc4)c(Cc4ccccc4)nn13)CCC2 |
| ≥ 10 µM | ≥ 10 µM | – | – | – | Cc1nn2c(=O)c3c([nH]c2c1-c1ccc(Cl)cc1)CCC3 |
| – | – | ≤ 10 µM | ≤ 10 µM | ≤ 10 µM | Cc1nn2c(=O)cc(-c3ccc4c(c3)OCO4)[nH]c2c1Cc1ccccn1 |
| – | – | ≤ 10 µM | ≤ 10 µM | ≤ 10 µM | O=c1cc(-c2ccc3[nH]nnc3c2)[nH]c2c(-c3ccc(Cl)cc3)cnn12 |
| – | – | ≤ 10 µM | ≤ 10 µM | ≤ 10 µM | CCCNC(=O)c1c(N)nn2c(=O)cc(-c3ccc4[nH]nc(C)c4c3)[nH]c12 |
| – | – | ≤ 10 µM | ≥ 10 µM | ≤ 10 µM | O=c1cc(-c2ccc(-c3ncco3)cc2)[nH]c2c(-c3ccccn3)cnn12 |
| ≥ 10 µM | – | – | – | – | COc1ccc(-c2c(Cc3ccccc3)nn3c(=O)cc(-c4ccccc4)[nH]c23)cc1 |
| – | – | ≤ 10 µM | ≤ 10 µM | ≤ 10 µM | O=c1cc(-c2cc3nn[nH]c3cc2F)[nH]c2c(-c3ccccn3)cnn12 |
| – | – | ≤ 10 µM | ≤ 10 µM | ≤ 10 µM | CCCNC(=O)c1c(O)nn2c(=O)cc(-c3ccc4c(c3)OCO4)[nH]c12 |
| ≥ 10 µM | ≥ 10 µM | – | – | – | O=c1cc(Cc2ccccc2)[nH]c2c(-c3ccccc3)c(-c3ccccc3)nn12 |
| – | – | ≤ 10 µM | ≤ 10 µM | ≤ 10 µM | COc1c(-c2cc(=O)n3ncc(-c4ccccn4)c3[nH]2)ccc2[nH]nnc12 |
| ≤ 10 µM | ≤ 10 µM | – | – | – | COc1ccc(-c2cc(=O)n3nc(C)c(-c4ccccc4)c3[nH]2)cc1 |
| ≥ 10 µM | – | – | – | – | O=c1c2c([nH]c3c(-c4ccccc4)c(-c4ccccc4)nn13)CCC2 |
| – | – | ≤ 10 µM | ≤ 10 µM | ≤ 10 µM | Nc1nn2c(=O)cc(-c3ccc4[nH]nnc4c3)[nH]c2c1-c1ccc(Cl)cc1 |
| ≥ 10 µM | ≥ 10 µM | – | – | – | CCCc1cc(=O)n2nc(Cc3ccccc3)c(-c3ccc(Cl)cc3)c2[nH]1 |

| IC50 [1] | IC50 [2] | IC50 [3] | IC50 [4] | IC50 [5] | SMILES |
| --- | --- | --- | --- | --- | --- |
| ≥ 10 µM | ≥ 10 µM | – | – | – | O=c1cc(-c2ccccc2)[nH]c2c(-c3ccc(Cl)cc3)c(Cc3ccccc3)nn12 |
| – | – | ≤ 10 µM | ≤ 10 µM | ≤ 10 µM | CCCNC(=O)c1c(N)nn2c(=O)cc(-c3ccc4c(cnn4C)c3)[nH]c12 |
| ≥ 10 µM | – | – | – | – | Cc1nn2c(=O)c(C#N)c(-c3ccccc3)[nH]c2c1-c1ccccc1 |
| ≥ 10 µM | ≥ 10 µM | – | – | – | COc1ccc(Cc2nn3c(=O)cc(-c4ccccc4)[nH]c3c2-c2ccccc2)cc1 |
| – | – | ≤ 10 µM | ≥ 10 µM | ≤ 10 µM | N#Cc1ccc(-c2cc(=O)n3ncc(-c4ccccn4)c3[nH]2)cc1 |
| ≤ 10 µM | ≤ 10 µM | – | – | – | O=c1cc(-c2ccc([N+](=O)[O-])cc2)[nH]c2c(-c3ccc(Cl)cc3)c(Cc3ccccc3)nn12 |
| – | – | ≤ 10 µM | ≤ 10 µM | ≤ 10 µM | Nc1nn2c(=O)cc(-c3ccc4[nH]nnc4c3)[nH]c2c1-c1ccccc1 |
| ≤ 10 µM | – | – | – | – | Cc1cc(=O)n2nc(-c3ccc(Cl)cc3)cc2[nH]1 |
| ≥ 10 µM | ≥ 10 µM | – | – | – | O=c1cc(Cc2ccccc2)[nH]c2c(-c3ccccc3)c(Cc3ccccc3)nn12 |
| ≤ 10 µM | ≤ 10 µM | – | – | – | Cc1nn2c(=O)cc(-c3ccc([N+](=O)[O-])cc3)[nH]c2c1-c1ccc(Cl)cc1 |
| – | – | ≤ 10 µM | ≤ 10 µM | ≤ 10 µM | COc1c(-c2cc(=O)n3nc(C)c(-c4ccccn4)c3[nH]2)ccc2c1OCO2 |
| ≥ 10 µM | ≥ 10 µM | – | – | – | Cc1nn2c(=O)cc(-c3ccccc3)[nH]c2c1-c1ccc(F)cc1 |
| – | – | ≤ 10 µM | ≤ 10 µM | ≤ 10 µM | CCCNC(=O)c1c(N)nn2c(=O)cc(-c3ccc4[nH]ncc4c3)[nH]c12 |
| ≥ 10 µM | ≥ 10 µM | – | – | – | COCc1cc(=O)n2nc(Cc3ccccc3)c(-c3ccc(Cl)cc3)c2[nH]1 |
| ≥ 10 µM | – | – | – | – | O=c1cc(-c2ccccc2)[nH]c2c(-c3ccccc3)c(Cc3ccccc3)nn12 |
| – | – | ≤ 10 µM | ≥ 10 µM | ≤ 10 µM | COc1cc2[nH]nnc2cc1-c1cc(=O)n2nc(N)c(-c3ccccn3)c2[nH]1 |
| ≥ 10 µM | ≥ 10 µM | – | – | – | CCc1c(C)[nH]c2c(-c3ccccc3)c(Cc3ccc(OC)cc3)nn2c1=O |
| – | – | ≤ 10 µM | ≤ 10 µM | ≤ 10 µM | CCCNC(=O)c1c(N)nn2c(=O)cc(-c3ccc(Cl)cc3)[nH]c12 |
| ≥ 10 µM | ≥ 10 µM | – | – | – | COCc1cc(=O)n2nc(Cc3ccccc3)c(-c3ccc(OC)cc3)c2[nH]1 |

| IC50 [1] | IC50 [2] | IC50 [3] | IC50 [4] | IC50 [5] | SMILES |
| --- | --- | --- | --- | --- | --- |
| – | – | ≤ 10 µM | ≤ 10 µM | ≤ 10 µM | O=c1cc(-c2ccc3[nH]nnc3c2)[nH]c2c(-c3ccccn3)c(O)nn12 |
| ≥ 10 µM | ≥ 10 µM | – | – | – | Cc1ccc(-c2cc(=O)n3nc(C)c(-c4ccccc4)c3[nH]2)cc1 |
| – | – | ≤ 10 µM | ≤ 10 µM | ≤ 10 µM | COc1c(-c2cc(=O)n3nc(N)c(-c4ccccn4)c3[nH]2)ccc2c1OCO2 |
| ≤ 10 µM | ≤ 10 µM | – | – | – | Cc1[nH]c2c(-c3ccc(Cl)cc3)cnn2c(=O)c1Cc1ccccc1 |
| ≥ 10 µM | ≥ 10 µM | – | – | – | CCCc1cc(=O)n2nc(C)c(-c3ccc(Cl)cc3)c2[nH]1 |
| – | – | ≤ 10 µM | ≤ 10 µM | ≤ 10 µM | CC(=O)Nc1nn2c(=O)cc(-c3ccc4c(cnn4C)c3)[nH]c2c1-c1ccccn1 |
| – | – | ≤ 10 µM | ≤ 10 µM | ≤ 10 µM | CCc1nn2c(=O)cc(-c3ccc4[nH]nnc4c3)[nH]c2c1-c1ccccn1 |
| ≥ 10 µM | ≥ 10 µM | – | – | – | COc1ccc(-c2nn3c(=O)cc(C(C)C)[nH]c3c2-c2ccccc2)cc1 |
| ≥ 10 µM | ≥ 10 µM | – | – | – | COc1ccc(Cc2nn3c(=O)cc(C)[nH]c3c2-c2ccccc2)cc1 |
| – | – | ≤ 10 µM | ≤ 10 µM | ≤ 10 µM | COc1c(-c2cc(=O)n3nc(O)c(-c4ccccn4)c3[nH]2)ccc2c1OCO2 |
| – | – | ≤ 10 µM | ≤ 10 µM | ≤ 10 µM | CCCNC(=O)c1c(N)nn2c(=O)cc(-c3ccc4[nH]nnc4c3)[nH]c12 |
| ≥ 10 µM | ≥ 10 µM | – | – | – | Cc1cc(=O)n2nc(C)c(-c3ccc(Cl)cc3)c2[nH]1 |
| ≤ 10 µM | – | – | – | – | Cc1cc(=O)n2nc(-c3cccc(Br)c3)cc2[nH]1 |
| ≥ 10 µM | ≥ 10 µM | – | – | – | O=c1cc(-c2ccccc2)[nH]c2c(-c3cccc4ccccc34)c(Cc3ccccc3)nn12 |
| ≥ 10 µM | ≥ 10 µM | – | – | – | COCc1cc(=O)n2nc(-c3ccc(Cl)cc3)cc2[nH]1 |
| ≥ 10 µM | ≥ 10 µM | – | – | – | COc1ccc(-c2c(C)nn3c(=O)cc(Cc4ccccc4)[nH]c23)cc1 |
| ≤ 10 µM | ≤ 10 µM | – | – | – | Cc1nn2c(=O)cc(-c3ccccc3)[nH]c2c1-c1ccc(Cl)cc1 |
| ≤ 10 µM | ≤ 10 µM | – | – | – | COc1ccc(-c2cc(=O)n3nc(C)c(-c4ccc(F)cc4)c3[nH]2)cc1 |
| ≥ 10 µM | – | – | – | – | COc1ccc(-c2c(C)nn3c(=O)cc(-c4ccccc4)[nH]c23)cc1 |

| SMILES | IC50 [1] | IC50 [2] | IC50 [3] | IC50 [4] | IC50 [5] |
| --- | --- | --- | --- | --- | --- |
| COc1ccccc1-c1cc(=O)n2nc(C)c(-c3ccccc3)c2[nH]1 | ≤ 10 µM | ≤ 10 µM | – | – | – |
